# Measurements reported in patent US10577363B2, “Substituted piperidine compounds” (EPIZYME, INC., priority 2014, dated 2020).
# Target: SMYD3 (Homo sapiens (Human), UniProt Q9H7B4)
# Assay: SMYD3 biochemical assay (SPA, 3H-SAM methylation of MEKK2 protein substrate)
# Details: Table 1A; IC50 values are an average of n = 1 to n = 50; read-out: SMYD3 Biochem IC50
# Description: S-adenosylmethionine (SAM), S-adenosylhomocysteine (SAH), Tris, Tween20, dimethylsulfoxide (DMSO), bovine skin gelatin (BSG), and Tris(2-carboxyethyl)phosphine hydrochloride solution (TCEP) were purchased from Sigma-Aldrich at the highest level of purity possible. ^3H-SAM was purchase from American Radiolabeled Chemicals with a specific activity of 80 Ci/mmol. 384-well opaque white OptiPlates and SPA beads (Perkin Elmer, catalog # RPNQ0013) were purchased from PerkinElmer.
# N-terminally GST-tagged MEKK2 (MAP3K2) protein corresponding to reference sequence AAF63496.3 was purchased from Life Technologies (catalog # PV4010). This protein was expressed in High Five insect cells and purified to >85% purity. Protein identity was confirmed by MS/MS analysis after proteolytic digestion. The protein sequence used was:
# Full-length human SMYD3 isoform 1 (BAB86333) was inserted into a modified pET21b plasmid containing a His6 tag and TEV and SUMO cleavage sites.
# E. coli (BL21 codonplus RIL strain, Stratagene) were transformed with plasmid pEPZ553 by mixing competent cells and plasmid DNA and incubating on ice for 30 minutes followed by heat shock at 42° C. for 1 minute and cooling on ice for 2 minutes. Transformed cells were grown and selected on LB agar with 100 μg/mL ampicillin and 17 μg/mL chloramphenicol at 37° C. overnight. A single clone was used to inoculate 200 mL of LB medium with 100 μg/mL ampicillin and 17 μg/mL chloramphenicol and incubated at 37° C. on an orbital shaker at 180 rpm. Once in log growth, the culture was diluted 1:100 into 2 L of LB medium and grown until OD600 was about 0.3 after which the culture was incubated at 15° C. and 160 rpm. Once OD600 reached about 0.4, IPTG was added to a final concentration of 0.1 mM and the cells were grown overnight at 15° C. and 160 rpm. Cells were harvested by centrifugation at 8000 rpm, for 4 minutes at 4° C. and stored at −80° C. for purification.
# The column was washed with Buffer B (Buffer A plus 20 mM imidazole) and His-tagged SMYD3 was eluted with Buffer C (Buffer A plus 300 mM imidazole). The His tag, TEV and SUMO cleavage sites were removed generating native SMYD3 by addition of ULP1 protein at a ratio of 1:200 (ULP1:SMYD3). Imidazole was removed by dialysis overnight in Buffer A. The dialyzed solution was applied to a second Nickel column and the native SMYD3 protein was collected from the column flow-through. The flow-through was dialyzed in Buffer D (25 mM Tris, 5% glycerol, 5 mM β-mercaptoethanol, 50 mM NaCl, pH7.8) and ULP1 was removed using a Q sepharose fast flow column.
# General Procedure for SMYD3 Enzyme Assays on MEKK2 Protein Substrate
# The assays were all performed in a buffer consisting of 25 mM Tris-Cl pH 8.0, 1 mM TCEP, 0.005% BSG, and 0.005% Tween 20, prepared on the day of use. […] DMSO (1 ul) was added to Columns 11, 12, 23, 24, rows A-H for the maximum signal control and 1 ul of SAH, a known product and inhibitor of SMYD3, was added to columns 11, 12, 23, 24, rows I-P for the minimum signal control. A cocktail (40 ul) containing the SMYD3 enzyme was added by Multidrop Combi (Thermo-Fisher). The compounds were allowed to incubate with SMYD3 for 30 min at room temperature, then a cocktail (10 ul) containing SAM and MEKK2 was added to initiate the reaction (final volume=51 ul). […] The assays were stopped by the addition of non-radiolabeled SAM (10 ul) to a final concentration of 100 uM, which dilutes the ^3H-SAM to a level where its incorporation into MEKK2 is no longer detectable. Radiolabeled MEKK2 was detected using a scintillation proximity assay (SPA). 10 uL of a 10 mg/mL solution of SPA beads in 0.5 M citric acid was added and the plates centrifuged at 600 rpm for 1 min to precipitate the radiolabeled MEKK2 onto the SPA beads. The plates were then read in a PerkinElmer TopCount plate reader to measure the quantity of ^3H-labeled MEKK2 as disintegrations per minute (dpm) or alternatively, referred to as counts per minute (cpm).
row,IC50,SMILES
1,1.08 µM,"C[C@H]1C[C@@H](NC(=O)c2cc(C3CC3)on2)CCN1S(=O)(=O)c1cccnc1N [compound 523, N-((2S,4S)-1-((2-aminopyridin-3-yl)sulfonyl)-2-methylpiperidin-4-yl)-5-cyclopropylisoxazole-3-carboxamide]"

# Same assay, conditions: read-out: SMYD3 Biochem IC50 (μM)*
row,SMILES,IC50
1,"C[C@H]1CC(NC(=O)c2cc(C3CC3)on2)CCN1C(=O)[C@H]1CC[C@H](N(C)C)CC1 (stereo partly drawn) [compound 105, 5-cyclopropyl-N-((2S)-1-((1r,4S)-4-(dimethylamino)cyclohexane-1-carbonyl)-2-methylpiperidin-4-yl)isoxazole-3-carboxamide]",20 µM
2,"N[C@H]1CC[C@H](C(=O)N2CCC(NC(=O)c3cc(C4CC4)on3)C[C@H]2c2ccccc2)CC1 (stereo partly drawn) [compound 162, N-((2S)-1-((1r,4S)-4-aminocyclohexane-1-carbonyl)-2-phenylpiperidin-4-yl)-5-cyclopropylisoxazole-3-carboxamide]",> 10 µM
3,"C[C@H]1CC(NC(=O)c2cc(C3CC3)on2)CCN1C(=O)C1CC2(CC(N)C2)C1 (stereo partly drawn) [compound 130, N-((2S)-1-(6-aminospiro[3.3]heptane-2-carbonyl)-2-methylpiperidin-4-yl)-5-cyclopropylisoxazole-3-carboxamide]",1.3 µM
4,"C[C@H]1C[C@H](NC(=O)c2cc(C3CC3)on2)CCN1C(=O)CCCCN [compound 273, N-((2S,4R)-1-(5-aminopentanoyl)-2-methylpiperidin-4-yl)-5-cyclopropylisoxazole-3-carboxamide]",7.83 µM
5,"C[C@H]1CC(NC(=O)c2cc(C3CC3)on2)CCN1C(=O)[C@@H]1CC[C@@H](N)C1 (stereo partly drawn) [compound 85, N-((2S)-1-((1R,3R)-3-aminocyclopentane-1-carbonyl)-2-methylpiperidin-4-yl)-5-cyclopropylisoxazole-3-carboxamide]",2.37 µM
6,"CCOC(=O)CS(=O)(=O)N1CC[C@H](NC(=O)c2cc(C3CC3)on2)C[C@@H]1C [compound 231, ethyl 2-(((2S,4S)-4-(5-cyclopropylisoxazole-3-carboxamido)-2-methylpiperidin-1-yl)sulfonyl)acetate]",1.17 µM
7,"N[C@@H](Cc1ccc(O)cc1)CN1CCC(NC(=O)c2cc(C3CC3)on2)CC1 [compound 14, (S)-N-(1-(2-amino-3-(4-hydroxyphenyl)propyl)piperidin-4-yl)-5-cyclopropylisoxazole-3-carboxamide]",4.59 µM
8,"CC1(C)CN(C(=O)CC2CCNCC2)CCC1NC(=O)c1cc(C2CC2)on1 (centres unmarked) [compound 157, 5-cyclopropyl-N-(3,3-dimethyl-1-(2-(piperidin-4-yl)acetyl)piperidin-4-yl)isoxazole-3-carboxamide]",0.521 µM

# Results, then the molecule that gave them:
row,IC50,SMILES
1,9.29 µM,"COCCS(=O)(=O)N1CC[C@@H](NC(=O)c2cc(C3CC3)on2)C[C@H]1C [compound 257, 5-cyclopropyl-N-((2R,4R)-1-((2-methoxyethyl)sulfonyl)-2-methylpiperidin-4-yl)isoxazole-3-carboxamide]"
2,0.0723 µM,"C[C@H]1C[C@H](NC(=O)c2cc(C3CC3)on2)CCN1S(=O)(=O)CCCN [compound 188, N-((2S,4R)-1-((3-aminopropyl)sulfonyl)-2-methylpiperidin-4-yl)-5-cyclopropylisoxazole-3-carboxamide]"
3,> 10 µM,"CCCS(=O)(=O)N1CC[C@H](NC(=O)c2cc(C3CC3)on2)C[C@H]1C [compound 238, 5-cyclopropyl-N-((2R,4S)-2-methyl-1-(propylsulfonyl)piperidin-4-yl)isoxazole-3-carboxamide]"
4,2.74 µM,"CC(C)CNc1ncccc1S(=O)(=O)N1CC[C@H](NC(=O)c2cc(C3CC3)on2)C[C@@H]1C [compound 474, 5-cyclopropyl-N-((2S,4S)-1-((2-(isobutylamino)pyridin-3-yl)sulfonyl)-2-methylpiperidin-4-yl)isoxazole-3-carboxamide]"
5,> 10 µM,"CC(C)CNc1ccc(S(=O)(=O)N2CC[C@H](NC(=O)c3cc(C4CC4)on3)C[C@H]2C)cn1 [compound 451, 5-cyclopropyl-N-((2R,4S)-1-((6-(isobutylamino)pyridin-3-yl)sulfonyl)-2-methylpiperidin-4-yl)isoxazole-3-carboxamide]"
